Experimental findings from patent US20240150334A1, “HSD17B13 INHIBITORS AND/OR DEGRADERS” (Pfizer Inc., priority 2022, published 2024) are described below.

Broadly, the IC50 is the concentration needed to halve the response being measured.

Assay [1] concerns the target wild type human HSD17B13 (Homo sapiens (Human), UniProt Q7Z5P4). Briefly: HEK_Beta-Est LCMS_IC50_Tekcel, whole-cell HEK-HSD17B13 inhibition assay, estrone production by LCMS. The assay is classed as cell-based. Conditions: geometric mean, HEK cells stably expressing wild type human HSD17B13, 25 μM FAC beta-estradiol, read-out: HEK_Beta-Est LCMS_IC50—Tekcel GMean IC50. An outline of the steps:
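HEK cells expressing wild-type human HSD17B13 were preincubated with compound for 1 hour at 37° C, then the beta-estradiol/NAD+ reaction ran for 2 hours at 37° C. Estrone formed was quantified by LCMS as product area ratio and normalized to uninhibited vehicle-control wells.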

The target of assay [2] is HSD17B13 enzyme (Homo sapiens (Human), UniProt Q7Z5P4). Briefly: hHSD17B13 IC50 Assay (FAC beta-estradiol), purified protein enzyme activity assay with NAD(P)H-Glo luciferase readout. The format is biochemical. Conditions: geometric mean, 12 μM FAC beta-estradiol, 500 μM NAD+, read-out: hHSD17B13_IC50 GMean IC50. An outline of the steps: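 Purified human HSD17B13 (30 nM FAC) incubated with compound, beta-estradiol and NAD+ for 2 h at room temperature in the dark. NADH formation was detected by NAD(P)H-Glo luminescence after 1 h. RLUs normalized to uninhibited enzyme (vehicle) as zero effect.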
Sequence of HSD17B13 enzyme (Q7Z5P4 20-300): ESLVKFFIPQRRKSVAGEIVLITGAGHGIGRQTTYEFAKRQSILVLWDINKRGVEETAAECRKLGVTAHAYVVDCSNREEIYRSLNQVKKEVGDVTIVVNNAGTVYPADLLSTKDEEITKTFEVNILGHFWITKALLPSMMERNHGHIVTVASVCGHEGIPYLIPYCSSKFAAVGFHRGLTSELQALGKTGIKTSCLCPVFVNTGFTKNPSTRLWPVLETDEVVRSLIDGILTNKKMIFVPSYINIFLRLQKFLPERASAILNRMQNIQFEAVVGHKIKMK

Sequence of wild type human HSD17B13 (Q7Z5P4 20-300): as above

With `O=C(NC[C@H]1CC[C@H](c2nc(-c3ccc(C(F)(F)F)cn3)no2)CC1)c1cc(F)c(O)c(F)c1F` [Example 210, 2,3,5-trifluoro-4-hydroxy-N-{[(1r,4r)-4-{3-[5-(trifluoromethyl)pyridin-2-yl]-1,2,4-oxadiazol-5-yl}cyclohexyl]methyl}benzamide], the half-inhibitory concentration (IC50) in assay [1] came to 450 nM; in assay [2] it was 18 nM.

As to `COc1cnc(-c2noc([C@]34CC[C@](CNC(=O)c5cc(F)c(O)c(F)c5F)(CC3)CC4)n2)cn1` [Example 151, 2,3,5-trifluoro-4-hydroxy-N-({4-[3-(5-methoxypyrazin-2-yl)-1,2,4-oxadiazol-5-yl]bicyclo[2.2.2]octan-1-yl}methyl) benzamide], the IC50 in assay [1] came to 170 nM; in assay [2] it was 8.2 nM.
